The values below come from US20260001928A1 (CORTERIA PHARMACEUTICALS, priority 2022, published 2026).

Test [1] has as its target T1, human CRF2a receptor (Homo sapiens, UniProt Q13324).
T1 construct: expressed in transfected cells; host or cells: TeloHEAC cells
T1 sequence (Q13324 1-411): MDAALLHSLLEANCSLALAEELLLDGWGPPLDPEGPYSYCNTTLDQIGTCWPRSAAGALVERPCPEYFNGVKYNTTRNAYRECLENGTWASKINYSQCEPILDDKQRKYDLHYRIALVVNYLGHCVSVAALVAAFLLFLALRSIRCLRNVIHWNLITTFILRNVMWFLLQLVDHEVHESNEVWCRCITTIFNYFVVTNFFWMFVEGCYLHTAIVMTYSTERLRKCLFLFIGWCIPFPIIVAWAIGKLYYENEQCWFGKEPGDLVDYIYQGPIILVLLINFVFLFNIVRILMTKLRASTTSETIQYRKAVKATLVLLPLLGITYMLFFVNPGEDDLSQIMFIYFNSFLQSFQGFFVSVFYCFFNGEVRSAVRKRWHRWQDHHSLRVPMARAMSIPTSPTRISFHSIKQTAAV
The experiment in a line: Activity at human CRF2a receptor, cAMP functional assay in TeloHEAC cells. It is filed as cell-based. To be noted: TeloHEAC cells stably expressing human CRF2a receptor, relative to urocortin 2 (100 nM = 100%). The procedure:
Agonism of compounds for human corticotropin-releasing factor 2a (CRF2a receptor) was determined by a functional assay measuring cAMP modulation upon treatment of TeloHEAC cells stably expressing human CRF2a receptor. Compounds were dissolved at 0.5 mM in 100% DMSO and serially diluted (1:2) in 100% DMSO for 16 dilutions. 20 nL of each dilution was then transferred to 384-well assay plate using an acoustic droplet ejection instrument. 5 μL of compound buffer (1×HBSS; 20 mM HEPES,) were then added to each well. Prior to use, frozen cells were thawed quickly at 37° C. and washed (5 min at 900 rpm) with 20 mL cell buffer (1×HBSS; 20 mM HEPES). Cells were resuspended in cell buffer added with 2 mM IBMX and adjusted to a cell density of […]. 5 μL cells (final dell density: 10000 cells/well) were dispensed in the compound-containing 384-well assay plate and incubated for 30 minutes 37° C. The cAMP level in treated cells was determined using the Cisbio 62AM4PEC kit according to manufacturer's instruction. Finally, plates were incubated for 1 h at room temperature before measuring the fluorescence ratio between 665/620 nm. The percent activity value (E %) was calculated by setting 100 nM of urocortin 2 (UCN2) as 100%. The in vitro potency of the compounds was quantified by determining the concentrations that caused 50% activation of maximal response (EC50) relative to urocortin 2.

In test [2] the target is T2, CFR1R receptor (Homo sapiens, UniProt P34998).
T2 construct: host or cells: CHO-K1 (clone 2)
T2 sequence (P34998 24-415): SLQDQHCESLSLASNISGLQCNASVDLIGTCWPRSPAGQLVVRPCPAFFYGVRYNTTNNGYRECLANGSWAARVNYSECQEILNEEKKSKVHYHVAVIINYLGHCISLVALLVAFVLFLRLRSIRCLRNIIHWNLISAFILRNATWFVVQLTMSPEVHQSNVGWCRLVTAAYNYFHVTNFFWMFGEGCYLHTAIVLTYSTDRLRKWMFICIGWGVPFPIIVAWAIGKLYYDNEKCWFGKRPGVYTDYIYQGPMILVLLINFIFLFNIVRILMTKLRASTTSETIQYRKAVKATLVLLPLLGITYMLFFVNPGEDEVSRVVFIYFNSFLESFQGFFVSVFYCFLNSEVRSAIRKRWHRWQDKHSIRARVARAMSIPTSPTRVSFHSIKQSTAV
The experiment in a line: Activity at anti-target CFR1R receptor, cAMP assay in CRF1R-overexpression CHO-K1 cells. It counts as cell-based. To be noted: 100% = Sauvagine at 100 nM; for EC50: cAMP. In a few lines: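 cAMP readout in CRF1R-overexpressing CHO-K1 cells (clone 2), run as for the TeloHAEC assay at 4000 cells/well final. Cells came from cryopreserved banks. Sauvagine at 100 nM defined 100% activation.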

*1 amine or outer side, *2 acyl side, *3 side chain or, on linkers, in order; H or OH if unused. Where a SMILES comes first, the peptide text is derived from it. Side-chain parts run from the residue outwards. [ ]: non-standard residue; d: D form. The star is where a group is joined. C18 diacid = O=C(O)CCCCCCCCCCCCCCCCC(=O)*; C16 diacid = O=C(O)CCCCCCCCCCCCCCC(=O)*; γGlu = O=C(O)[C@H](CCC(=O)[*:2])N[*:1]; NMeI = CC[C@H](C)[C@H](NC)C(=O)O; Pentanoyl = CCCCC(=O)*; Aib = CC(C)(N)C(=O)O; Propionyl = CCC(=O)*; Butyryl = CCCC(=O)* Bounds are passed on as bounds.

Compound `CCCCC(=O)N[C@H](C(=O)N[C@@H](CC(C)C)C(=O)N[C@@H](CO)C(=O)N[C@@H](CC(C)C)C(=O)N[C@@H](CC(=O)O)C(=O)N[C@@H](C(=O)N1CCC[C@H]1C(=O)N[C@H](C(=O)N[C@@H](CCCCN)C(=O)N[C@@H](CC(C)C)C(=O)N[C@@H](CCCCNC(=O)CC[C@H](NC(=O)CCCCCCCCCCCCCCC(=O)O)C(=O)O)C(=O)N[C@@H](CCC(N)=O)C(=O)NC(C)(C)C(=O)N[C@@H](CC(C)C)C(=O)N[C@@H](CC(C)C)C(=O)N[C@@H](CCCCN)C(=O)N[C@@H](CCC(N)=O)C(=O)N[C@@H](CCC(=O)O)C(=O)N[C@@H](CCCNC(=N)N)C(=O)N[C@@H](CCC(N)=O)C(=O)N[C@@H](CCCCN)C(=O)N[C@@H](CCCCN)C(=O)N[C@@H](CCC(N)=O)C(=O)N[C@@H](CCCNC(=N)N)C(=O)N[C@@H](CCC(=O)O)C(=O)N[C@@H](CCC(N)=O)C(=O)N[C@@H](C)C(=O)N[C@@H](CCC(=O)O)C(=O)N[C@@H](CCCCN)C(=O)N[C@@H](CC(N)=O)C(=O)N[C@H](C(=O)N[C@@H](CCC(N)=O)C(=O)N[C@H](C(=O)N[C@@H](CC(C)C)C(=O)N[C@@H](CCC(=O)O)C(=O)N[C@@H](CCC(N)=O)C(=O)N[C@H](C(N)=O)C(C)C)[C@@H](C)CC)C(C)C)[C@@H](C)CC)C(C)C)C(C)C` [compound 22] (Pentanoyl-VLSLD[dV]PIKLK([γGlu-C16 diacid])Q[Aib]LLKQERQKKQREQAEKNVQILEQV-NH2) showed an EC50 in test [1] of 4.44 nM. Moreover, in test [2], the “Emax (% I)” value came out at 3 % I and the concentration for a half-maximal effect (EC50) is > 250 nM.

In turn, `CC[C@H](C)[C@H](NC)C(=O)N[C@H](C(=O)N[C@@H](CC(C)C)C(=O)N[C@@H](CO)C(=O)N[C@@H](CC(C)C)C(=O)N[C@@H](CC(=O)O)C(=O)N[C@@H](C(=O)N1CCC[C@H]1C(=O)N[C@H](C(=O)N[C@@H](CCCCN)C(=O)N[C@@H](CC(C)C)C(=O)N[C@@H](CCCCNC(=O)CC[C@H](NC(=O)CCCCCCCCCCCCCCCCC(=O)O)C(=O)O)C(=O)N[C@@H](CCC(N)=O)C(=O)N[C@H](C(=O)N[C@@H](CC(C)C)C(=O)N[C@@H](CC(C)C)C(=O)N[C@@H](CCCCN)C(=O)N[C@@H](CCC(N)=O)C(=O)N[C@@H](CCC(=O)O)C(=O)N[C@@H](CCCNC(=N)N)C(=O)N[C@@H](CCC(N)=O)C(=O)N[C@@H](CCCCN)C(=O)N[C@@H](CCCCN)C(=O)N[C@@H](CCC(N)=O)C(=O)N[C@@H](CCCNC(=N)N)C(=O)N[C@@H](CCC(=O)O)C(=O)N[C@@H](CCC(N)=O)C(=O)N[C@@H](C)C(=O)N[C@@H](CCC(=O)O)C(=O)N[C@@H](CCCCN)C(=O)N[C@@H](CC(N)=O)C(=O)NC(C)(C)C(=O)N[C@@H](CCC(N)=O)C(=O)N[C@H](C(=O)N[C@@H](CC(C)C)C(=O)N[C@@H](CCC(=O)O)C(=O)N[C@@H](CCC(N)=O)C(=O)N[C@H](C(N)=O)C(C)C)[C@@H](C)CC)[C@@H](C)CC)[C@@H](C)CC)C(C)C)C(C)C` [compound 23] (H-[NMeI]VLSLD[dV]PIKLK([γGlu-C18 diacid])QILLKQERQKKQREQAEKN[Aib]QILEQV-NH2) had a 50% effective concentration (EC50) in test [1] of 0.33 nM. Besides, in test [2], the “Emax (% I)” value is 35 % I and the EC50 was > 250 nM.

Consider `CC[C@H](C)[C@H](NC)C(=O)N[C@H](C(=O)N[C@@H](CC(C)C)C(=O)N[C@@H](CO)C(=O)N[C@@H](CC(C)C)C(=O)N[C@@H](CC(=O)O)C(=O)N[C@@H](C(=O)N1CCC[C@H]1C(=O)N[C@H](C(=O)N[C@@H](CCCCN)C(=O)N[C@@H](CC(C)C)C(=O)N[C@@H](CCCCNC(=O)CC[C@H](NC(=O)CCCCCCCCCCCCCCCCC(=O)O)C(=O)O)C(=O)N[C@@H](CCC(N)=O)C(=O)N[C@H](C(=O)N[C@@H](CC(C)C)C(=O)N[C@@H](CC(C)C)C(=O)N[C@@H](CCCCN)C(=O)N[C@@H](CCC(N)=O)C(=O)N[C@@H](CCC(=O)O)C(=O)N[C@@H](CCCNC(=N)N)C(=O)N[C@@H](CCC(N)=O)C(=O)N[C@@H](CCCCN)C(=O)N[C@@H](CCCCN)C(=O)N[C@@H](CCC(N)=O)C(=O)N[C@@H](CCCNC(=N)N)C(=O)N[C@@H](CCC(=O)O)C(=O)N[C@@H](CCC(N)=O)C(=O)N[C@@H](C)C(=O)N[C@@H](CCC(=O)O)C(=O)N[C@@H](CCCCN)C(=O)N[C@@H](CC(N)=O)C(=O)N[C@@H](C)C(=O)N[C@@H](CCC(N)=O)C(=O)N[C@H](C(=O)N[C@@H](CC(C)C)C(=O)N[C@@H](CCC(=O)O)C(=O)N[C@@H](CCC(N)=O)C(=O)N[C@H](C(N)=O)C(C)C)[C@@H](C)CC)[C@@H](C)CC)[C@@H](C)CC)C(C)C)C(C)C` [compound 24] (H-[NMeI]VLSLD[dV]PIKLK([γGlu-C18 diacid])QILLKQERQKKQREQAEKNAQILEQV-NH2), for which the figures for the EC50 in test [1] and in test [2] were 0.04 nM and > 250 nM, respectively. The “Emax (% I)” value in test [2] was determined as 37 % I.

Consider `CCC(=O)N[C@H](C(=O)N[C@@H](CC(C)C)C(=O)N[C@@H](CO)C(=O)N[C@@H](CC(C)C)C(=O)N[C@@H](CC(=O)O)C(=O)N[C@@H](C(=O)N1CCC[C@H]1C(=O)N[C@H](C(=O)N[C@@H](CCCCN)C(=O)N[C@@H](CC(C)C)C(=O)N[C@@H](CCCCNC(=O)CC[C@H](NC(=O)CCCCCCCCCCCCCCC(=O)O)C(=O)O)C(=O)N[C@@H](CCCCN)C(=O)N[C@H](C(=O)N[C@@H](CC(C)C)C(=O)N[C@@H](CC(C)C)C(=O)N[C@@H](CCC(=O)O)C(=O)N[C@@H](CCC(N)=O)C(=O)N[C@@H](CCC(=O)O)C(=O)N[C@@H](CCCCN)C(=O)N[C@@H](CCC(N)=O)C(=O)N[C@@H](CCCCN)C(=O)N[C@@H](CCCCN)C(=O)N[C@@H](CCC(N)=O)C(=O)N[C@@H](CCCNC(=N)N)C(=O)N[C@@H](CCC(=O)O)C(=O)N[C@@H](CCC(N)=O)C(=O)N[C@@H](C)C(=O)N[C@@H](CCC(=O)O)C(=O)N[C@H](C(=O)N[C@@H](CC(N)=O)C(=O)N[C@@H](CCCCN)C(=O)N[C@@H](CCC(N)=O)C(=O)N[C@H](C(=O)N[C@@H](CC(C)C)C(=O)N[C@@H](C)C(=O)N[C@@H](CCC(N)=O)C(=O)N[C@H](C(N)=O)C(C)C)[C@@H](C)CC)[C@@H](C)O)[C@@H](C)CC)[C@@H](C)CC)C(C)C)C(C)C` [compound 35] (Propionyl-VLSLD[dV]PIKLK([γGlu-C16 diacid])KILLEQEKQKKQREQAETNKQILAQV-NH2), for which a half-maximal effect in test [1] (EC50) was put at 0.23 nM. In test [2], the “Emax (% I)” value amounted to 13 % I and the EC50 is > 250 nM.

As for `CCCC(=O)N[C@H](C(=O)N[C@@H](CC(C)C)C(=O)N[C@@H](CO)C(=O)N[C@@H](CC(C)C)C(=O)N[C@@H](CC(=O)O)C(=O)N[C@@H](C(=O)N1CCC[C@H]1C(=O)N[C@H](C(=O)N[C@@H](CCCCN)C(=O)N[C@@H](CC(C)C)C(=O)N[C@@H](CCCCNC(=O)CC[C@H](NC(=O)CCCCCCCCCCCCCCC(=O)O)C(=O)O)C(=O)N[C@@H](CCCCN)C(=O)N[C@H](C(=O)N[C@@H](CC(C)C)C(=O)N[C@@H](CC(C)C)C(=O)N[C@@H](CCC(=O)O)C(=O)N[C@@H](CCC(N)=O)C(=O)N[C@@H](CCC(=O)O)C(=O)N[C@@H](CCCCN)C(=O)N[C@@H](CCC(N)=O)C(=O)N[C@@H](CCCCN)C(=O)N[C@@H](CCCCN)C(=O)N[C@@H](CCC(N)=O)C(=O)N[C@@H](CCCNC(=N)N)C(=O)N[C@@H](CCC(=O)O)C(=O)N[C@@H](CCC(N)=O)C(=O)N[C@@H](C)C(=O)N[C@@H](CCC(=O)O)C(=O)N[C@H](C(=O)N[C@@H](CC(N)=O)C(=O)N[C@@H](CCCCN)C(=O)N[C@@H](CCC(N)=O)C(=O)N[C@H](C(=O)N[C@@H](CC(C)C)C(=O)N[C@@H](C)C(=O)N[C@@H](CCC(N)=O)C(=O)N[C@H](C(N)=O)C(C)C)[C@@H](C)CC)[C@@H](C)O)[C@@H](C)CC)[C@@H](C)CC)C(C)C)C(C)C` [compound 36] (Butyryl-VLSLD[dV]PIKLK([γGlu-C16 diacid])KILLEQEKQKKQREQAETNKQILAQV-NH2), the 50% effective concentration (EC50) in test [1] is 0.14 nM; in test [2], > 250 nM. In addition, the “Emax (% I)” value in test [2] stood at 22 % I.
